Columns and labels:
tubulin [1] = experiment: binding of radiolabeled vinblastine to tubulin
tubulin [2] = conditions: in words, shown previously; cited from earlier work
[3] = test system: L1210 murine leukemia cells; experiment: mitotic index at cytotoxic concentrations; type: cell-based; conditions: in words
tubulin [4] = conditions: in words, shown previously; cited from earlier work; remark: listed apart in the source
[5] = test system: L1210 murine leukemia cells; experiment: cytotoxicity in L1210 leukemia cells; type: cell-based
tubulin [6] = experiment: radiolabeled GTP binding to tubulin (nucleotide exchange)
[7] = test system: human tumor cell line panel; experiment: NCI in vitro primary screen, pattern of differential growth inhibition / mean graph comparison; type: cell-based; conditions: computerized pattern-recognition analyses
Source text: Only two hundred years ago, many diseases ravaged humankind. Many of these diseases have been controlled or eradicated. In the development of the means to treat or control these diseases, work with the appropriate common experimental animals is of critical importance. With the various types of cancers, and with the HIV virus, such work is presently ongoing. The research for the treatment of various types of cancer is coordinated in the United States by the National Cancer Institute (NCI). NCI, as a government entity, has been charged with assisting all anti-cancer research. To establish whether a substance has anti-cancer activity, NCI has established a variety of protocols one of which involves testing the candidate substance against a cell line panel containing 60 human tumor cell lines. This protocol has been verified, and is generally accepted throughout the scientific community. This protocol and the established statistical means of evaluating the results obtained therefrom have been fully described in the literature See Principles & Practice of Oncology PPO Updates, Volume 3, Number 10, October 1989, by Michael R. Boyd, M.D., Ph.D. for an in depth description of the test protocol. […]

## C=C1C[C@@H]2CC[C@@]34C[C@H]5O[C@H]6[C@@H](O3)[C@H]3O[C@H](CC[C@@H]3O[C@H]6[C@H]5O4)CC(=O)O[C@@H]3[C@@H](C)[C@@H]4O[C@@H]5C[C@]6(C[C@@H]7O[C@]8(C[C@H](C)[C@@H]9O[C@H]([C@@H](O)C[C@@H](O)CO)C[C@@H]9O8)C[C@H](C)[C@@H]7O6)O[C@@H]5C[C@@H]4O[C@H]3C[C@H]3O[C@@H](CC[C@@H]1O2)C[C@@H](C)C3=C [halichondrin B]
Tubulin [1]; 5 μM
  inhibition of binding of radiolabeled vinblastine: 51%
Tubulin [1]; 10 μM
  inhibition of binding of radiolabeled vinblastine: 73%
Tubulin [2]
  inhibition of nucleotide exchange on tubulin: inhibit nucleotide exchange on tubulin
[3]
  rise in the mitotic index: caused a significant rise in the mitotic index
Tubulin [4]
  mode of inhibition of vinblastine binding to tubulin: noncompetitive inhibitor of the binding of radiolabeled vinblastine to tubulin
[5]
  IC50: 0.2 nM
Tubulin [6]; 5 μM
  inhibition of radiolabeled GTP binding to tubulin: 14%
Tubulin [6]; 10 μM
  inhibition of radiolabeled GTP binding to tubulin: 18%
[7]
  correlation of mean graph profiles: strongly correlated with each other and also with the profiles of a general class of tubulin-interactive antimitotics

## C=C1C[C@@H]2CC[C@@]34C[C@H]5O[C@H]6[C@@H](O3)[C@H]3O[C@H](CC[C@@H]3O[C@H]6[C@H]5O4)CC(=O)O[C@@H]3[C@@H](C)[C@@H]4O[C@@H]5C[C@]6(C[C@@H]7O[C@]8(C[C@H](C)[C@@H]9O[C@@H]%10CC(C(O)CO)O[C@@H]%10C[C@@H]9O8)C[C@H](C)[C@@H]7O6)O[C@@H]5C[C@@H]4O[C@H]3C[C@H]3O[C@@H](CC[C@@H]1O2)C[C@@H](C)C3=C (stereo partly shown) [homohalichondrin B]
[7]
  correlation of mean graph profiles: strongly correlated with each other and also with the profiles of a general class of tubulin-interactive antimitotics

Reference: patent US5426194A, “Isolation and structure of Halistatin 1” (Arizona Board of Regents, a body corporate acting on behalf …, priority 1993, dated 1995)
